How the values were obtained:
HIV-1 NL4-3 [1] = assay: Two-drug combination study with Compound 1 (combination indices); format: cell-based; settings: for Combination Indices at 50% HIV Inhibition (Confidence Interval) / Combination Indices at 75% HIV Inhibition (Confidence Interval) / Combination Indices at 90% HIV Inhibition (Confidence Interval): 95% CI in parentheses; for Overall Result: overall antiviral effect of the two-drug combination with Compound 1, all ratios and effective levels
Method: (§1) Virus and cell lines. The T-cell line, MT-2 was obtained through the AIDS Research and Reference Reagent Program, NIAID and was contributed by Dr. D. Richman. The cell line was cultured in RPMI 1640 medium supplemented with 10% fetal bovine serum, 2 mM L-glutamine and sub-cultured twice a week. The NL4-3 strain of HIV-1 was obtained from the AIDS Research and Reference Reagent Program. Both virus stocks were amplified and titered in MT-2 cells using a virus infectivity assay.
(§2) Drug Susceptibility and Cytotoxicity Assays. For drug susceptibility assays, MT-2 cells were infected with HIV-1 NL4-3 at an MOI of 0.001, and seeded into 96-well microtiter plates (2.5×10^5 cells/ml) containing serial dilutions of test compounds. […] Each drug ratio consisted of an array of 3-fold serial dilutions, and was performed in quadruplicate. The plates were incubated at 37° C./5% CO2. The MT-2 cells infected with HIV-1 NL4-3 were incubated for 5 days. On day-five post-infection, 20 μl from each well was harvested and quantitated by a reverse transcriptase (RT) assay or an MTS assay. Cytotoxicity assays were performed using uninfected cells, exposed to the same drug combinations, and incubated for five days. Cell viability was determined by an XTT assay. The CC50 values were calculated by using the exponential form of the median effect equation as mentioned below for calculation of EC50.
Analysis of Drug Combination Effects. For determination of CI values, drugs were diluted in a fixed ratio and multiple ratios were analyzed. The drug serial dilutions spanned a range of concentrations near the EC50 value of each compound, so that equivalent antiviral activities could be compared. Concentration-response curves were estimated for each individual drug and every combination using the median-effect equation. The equation was fit using a nonlinear regression routine (Proc Nlin) in PC SAS version 8.01 (SAS Institute Inc., SAS Version 8.01, Cary, N.C.: SAS Institute Inc., 1990).
(§3) In this equation, Fa stands for “fraction affected,” and represents the fraction of the viral load that has been inactivated.
To assess antiviral effects of different drug combination treatments, combination indices (CIs) were calculated according to Chou and Rideout. The combination index was computed as CI=[D]1/[Dm]1+[D]2/[Dm]2
In this equation [Dm]1 and [Dm]2 are the concentrations of drugs that would individually produce a specific level of effect, while [D]1 and [D]2 are the concentrations of drugs in combination that would produce the same level of effect.
Theoretically, additivity is implied if the CI is equal to one, synergy if the CI is less than one, and antagonism if the CI is greater than one. […] At best, we can construct a range that contains the likely values for the CI, given the noise in the data. In this report, these ranges are reported in parentheses next to each point estimate of the CI. […] If the range fell entirely above 1.0, we would infer antagonistic behavior. If the range were to include 1.0, we would infer additivity.

HIV-1 NL4-3 [2] = assay: microbe, parasite or virus in culture; settings: Human immunodeficiency virus 1, NL43, MT2, 120 h
Method: as §1, §2, §3
In carrying out the combination experiments below, the EC50 for Compound 1 and each comparator compound was determined during the course of each study, and used in the subsequent data analysis.

[3] = combination with Compound 1, EC50 ratio 1:1 (Compound 1:comparator)
[4] = combination with Compound 1, EC50 ratio 1:2.5 (Compound 1:comparator)
[5] = combination with Compound 1, EC50 ratio 2.5:1 (Compound 1:comparator)

Compound | EC50 (HIV-1 NL4-3 [2]) [nM] | Combination Indices at 50% HIV Inhibition (Confidence Interval) (HIV-1 NL4-3 [1]; [3]) | Combination Indices at 75% HIV Inhibition (Confidence Interval) (HIV-1 NL4-3 [1]; [3]) | Combination Indices at 90% HIV Inhibition (Confidence Interval) (HIV-1 NL4-3 [1]; [3]) | Combination Indices at 50% HIV Inhibition (Confidence Interval) (HIV-1 NL4-3 [1]; [4]) | Combination Indices at 75% HIV Inhibition (Confidence Interval) (HIV-1 NL4-3 [1]; [4]) | Combination Indices at 90% HIV Inhibition (Confidence Interval) (HIV-1 NL4-3 [1]; [4]) | Combination Indices at 50% HIV Inhibition (Confidence Interval) (HIV-1 NL4-3 [1]; [5]) | Combination Indices at 75% HIV Inhibition (Confidence Interval) (HIV-1 NL4-3 [1]; [5]) | Combination Indices at 90% HIV Inhibition (Confidence Interval) (HIV-1 NL4-3 [1]; [5]) | Overall Result (HIV-1 NL4-3 [1]) | Overall Result (HIV-1 NL4-3 [1]; listed as indinavir) | Overall Result (HIV-1 NL4-3 [1]; listed as zalcitabine) | Overall Result (HIV-1 NL4-3 [1]; listed as efavirenz) | Overall Result (HIV-1 NL4-3 [1]; listed as didanosine) | Overall Result (HIV-1 NL4-3 [1]; listed as amprenavir) | Overall Result (HIV-1 NL4-3 [1]; listed as zidovudine) | combination effect at the 13:1 and 82.5:1 molar ratios (HIV-1 NL4-3 [1]; combination with Compound 1) | combination effect at the 33:1 molar ratio (HIV-1 NL4-3 [1]; combination with Compound 1) | Overall Result (HIV-1 NL4-3 [1]; listed as lopinavir)
CC(C)(C)NC(=O)[C@@H]1CN(Cc2cccnc2)CCN1C[C@@H](O)C[C@@H](Cc1ccccc1)C(=O)N[C@H]1c2ccccc2C[C@H]1O [Indinavir, indinavir] | 6 | 0.64 (0.42, 0.85) | 1.17 (0.63, 1.71) | 2.15 (0.53, 3.78) | 0.92 (0.68, 1.16) | 1.07 (0.68, 1.46) | 1.24 (0.51, 1.97) | 0.41 (0.29, 0.53) | 0.70 (0.42, 0.97) | 1.19 (0.40, 1.97) | Additive- | additive to synergistic |  |  |  |  |  |  |  | 
O=C1Nc2ccc(Cl)cc2[C@@](C#CC2CC2)(C(F)(F)F)O1 [Efavirenz, efavirenz] | 1.5 | 0.57 (0.44, 0.70) | 0.56 (0.38, 0.74) | 0.56 (0.28, 0.84) | 0.49 (0.36, 0.62) | 0.54 (0.34, 0.75) | 0.61 (0.26, 0.97) | 0.60 (0.45, 0.74) | 0.51 (0.33, 0.68) | 0.43 (0.20, 0.67) | Synergistic |  |  | strong synergistic effects |  |  |  |  |  | 
CC(C)CN(C[C@@H](O)[C@H](Cc1ccccc1)NC(=O)O[C@H]1CCOC1)S(=O)(=O)c1ccc(N)cc1 [Amprenavir, amprenavir] | 42 | 0.37 (0.24, 0.49) | 0.53 (0.28, 0.78) | 0.95 (0.24, 1.67) | 0.37 (0.27, 0.48) | 0.56 (0.33, 0.78) | 1.05 (0.38, 1.71) | 1.17 (0.91, 1.43) | 0.87 (0.60, 1.13) | 0.74 (0.38, 1.10) | Additive- |  |  |  |  | additive to synergistic |  |  |  | 
CON(Cc1ccc(F)cc1)C(=O)/C=C(\O)C(=O)O [Compound 1, (Z)-3-[(4-Fluoro-benzyl)-methoxy-carbamoyl]-2-hydroxy-acrylic acid] | 155 |  |  |  |  |  |  |  |  |  | synergistic or additive-synergistic |  |  |  |  |  |  |  |  | 
COc1ncc(OC)c2c(C(=O)C(=O)N3CCN(C(=O)c4ccccc4)CC3)c[nH]c12 [Compound 3] | 1 | 0.92 (0.77, 1.06) | 0.90 (0.70, 1.10) | 0.89 (0.58, 1.21) | 0.71 (0.60, 0.82) | 0.66 (0.51, 0.80) | 0.61 (0.40, 0.82) | 0.41 (0.36, 0.47) | 0.41 (0.33, 0.48) | 0.40 (0.28, 0.52) | synergistic to additive |  |  |  |  |  |  | moderate synergy | additivity | 

Now from value to compound, other results behind:

EC50 (HIV-1 NL4-3 [2]) [nM] | Compound | Combination Indices at 50% HIV Inhibition (Confidence Interval) (HIV-1 NL4-3 [1]; [3]) | Combination Indices at 75% HIV Inhibition (Confidence Interval) (HIV-1 NL4-3 [1]; [3]) | Combination Indices at 90% HIV Inhibition (Confidence Interval) (HIV-1 NL4-3 [1]; [3]) | Combination Indices at 50% HIV Inhibition (Confidence Interval) (HIV-1 NL4-3 [1]; [4]) | Combination Indices at 75% HIV Inhibition (Confidence Interval) (HIV-1 NL4-3 [1]; [4]) | Combination Indices at 90% HIV Inhibition (Confidence Interval) (HIV-1 NL4-3 [1]; [4]) | Combination Indices at 50% HIV Inhibition (Confidence Interval) (HIV-1 NL4-3 [1]; [5]) | Combination Indices at 75% HIV Inhibition (Confidence Interval) (HIV-1 NL4-3 [1]; [5]) | Combination Indices at 90% HIV Inhibition (Confidence Interval) (HIV-1 NL4-3 [1]; [5]) | Overall Result (HIV-1 NL4-3 [1]) | Overall Result (HIV-1 NL4-3 [1]; listed as indinavir) | Overall Result (HIV-1 NL4-3 [1]; listed as zalcitabine) | Overall Result (HIV-1 NL4-3 [1]; listed as efavirenz) | Overall Result (HIV-1 NL4-3 [1]; listed as didanosine) | Overall Result (HIV-1 NL4-3 [1]; listed as amprenavir) | Overall Result (HIV-1 NL4-3 [1]; listed as zidovudine) | combination effect at the 13:1 and 82.5:1 molar ratios (HIV-1 NL4-3 [1]; combination with Compound 1) | combination effect at the 33:1 molar ratio (HIV-1 NL4-3 [1]; combination with Compound 1) | Overall Result (HIV-1 NL4-3 [1]; listed as lopinavir)
190 | Nc1ccn([C@@H]2CS[C@H](CO)O2)c(=O)n1 [Lamivudine, lamivudine] | 0.69 (0.58, 0.81) | 0.49 (0.38, 0.61) | 0.37 (0.25, 0.50) | 0.58 (0.52, 0.65) | 0.60 (0.51, 0.69) | 0.64 (0.49, 0.80) | 0.93 (0.65, 1.20) | 0.78 (0.46, 1.10) | 0.70 (0.24, 1.16) |  |  |  |  |  |  |  |  |  | 
120 | Nc1ccn([C@H]2CC[C@@H](CO)O2)c(=O)n1 [Zalcitabine, zalcitabine] | 0.79 (0.64, 0.94) | 0.75 (0.55, 0.96) | 0.72 (0.42, 1.02) | 0.83 (0.70, 0.95) | 0.70 (0.56, 0.85) | 0.60 (0.41, 0.80) | 0.85 (0.75, 0.95) | 0.72 (0.61, 0.84) | 0.61 (0.46, 0.77) | Synergistic |  | synergistic |  |  |  |  |  |  | 
270 | O=c1[nH]cnc2c1ncn2[C@H]1CC[C@@H](CO)O1 [Didanosine, didanosine] | 0.20 (0.14, 0.25) | 0.27 (0.17, 0.37) | 0.40 (0.16, 0.64) | 0.16 (0.12, 0.20) | 0.21 (0.14, 0.28) | 0.31 (0.13, 0.49) | 0.31 (0.27, 0.36) | 0.32 (0.26, 0.39) | 0.35 (0.23, 0.47) | Synergistic |  |  |  | synergistic |  |  |  |  | 
2 | Cc1cn([C@H]2C[C@H](N=[N+]=[N-])[C@@H](CO)O2)c(=O)[nH]c1=O [Zidovudine, zidovudine] | 0.21 (0.16, 0.26) | 0.15 (0.10, 0.20) | 0.12 (0.06, 0.18) | 0.33 (0.26, 0.40) | 0.23 (0.16, 0.29) | 0.16 (0.09, 0.24) | 0.21 (0.18, 0.24) | 0.16 (0.12, 0.19) | 0.13 (0.08, 0.17) | Synergistic |  |  |  |  |  | synergistic |  |  | 
14 | Cc1cccc(C)c1OCC(=O)N[C@@H](Cc1ccccc1)[C@@H](O)C[C@H](Cc1ccccc1)NC(=O)[C@H](C(C)C)N1CCCNC1=O [Lopinavir, lopinavir] | 0.16 (0.11, 0.22) | 0.16 (0.08, 0.24) | 0.16 (0.04, 0.28) |  | 0.57 (0.46 0.68) | 0.32 (0.22, 0.42) | 1.60 (1.28, 1.92) | 0.78 (0.56, 1.00) | 0.38 (0.22, 0.55) | Additive- |  |  |  |  |  |  |  |  | additive to synergistic

Source: patent US20060058286A1, “Methods of treating HIV infection” (priority 2004, published 2006)
